The text below walks through data of patent publication US12065445B2, “CDK2 inhibitors and methods of using the same” (Cedilla Therapeutics, Inc., priority 2021, dated 2024).

The target in one assay is T1, CDK2/Cyclin E1 (Homo sapiens, UniProt P24941).
T1 construct: purchased Eurofins 14-475
Description: CDK2/Cyclin E1 Caliper Assay (LabChip EZ Reader mobility shift). It counts as biochemical. The settings on record: read-out: Caliper Assay (CDK2/CCNE1): IC50. On the procedure: Inhibition of CDK2/Cyclin E1 activity in the presence of compounds of the present disclosure was evaluated using a Caliper LabChip® EZ Reader mobility shift assay. In the assay, CDK2/Cyclin E1 (Eurofins, 14-475) catalyzed the phosphorylation of a fluorescently tagged peptide 5-FAM-QSPKKG-CONH2 (PerkinElmer, FL Peptide 18) which induced a difference in capillary electrophoresis mobility. The peptide substrate and product were measured, and the conversion ratio was used to determine the inhibition (as % activity and IC50 values) of CDK2/Cyclin E1. Reactions contained 50 mM HEPES pH 7.5, 10 mM MgCl2, 1 mM EDTA, 2 mM DTT, 0.01% Brij35, 0.5 mg/mL BSA, 0.1% DMSO, 2.5 nM CDK2/Cyclin E1, 100 μM ATP, and 1.5 μM fluorescent peptide substrate.
Dose titrations of inhibitors in 100% DMSO were combined with 3.25 nM CDK2/Cyclin E1 and 130 μM of ATP in reaction buffer. The mixtures were incubated for 30 minutes before the addition of fluorescent peptide substrate to initiate the kinase reaction. The final conditions were 2.5 nM CDK2/Cyclin E1, 100 μM ATP, and 1.5 μM fluorescent peptide. The reactions were stopped after 100 minutes with the addition of EDTA (400 mM final EDTA concentration). The stopped reactions were analyzed on a Caliper LabChip® EZ Reader II. The conversion ratios were normalized to yield % activity, plotted against compound concentration, and fit to a four-parameter equation to determine the IC50 for each compound.

Another assay concerns Kuramochi cells. The experiment in a line: BrdU Cell Proliferation Assay. The settings on record: read-out: BrdU - KURAMOCHI.1: IC50. In kind it is cell-based. In short, it runs like this:
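Signal is 450 nm absorbance from a peroxidase anti-BrdU ELISA after a 1-hour BrdU label, background-subtracted and normalized to DMSO-treated wells. Kuramochi cells (2,000 per well) had been exposed to compound for 4 days. Dosing used a 10-point dose response in 3-fold steps.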

In assay [1] the test system is Kuramochi cells labeled with mApple-H2B. Description: IncuCyte Cell Proliferation Assay. In kind it is cell-based. In short, it runs like this:
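GI50 came from dose-response fits of cell-count fold change between 0 and 72 h, normalized to DMSO controls. Counts were fluorescent nuclei from live-cell images over a 10-point, ½ log series starting at 20 μM.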

On to `CNC(=O)[C@@H](NC(=O)[C@@H]1CN(C(=O)c2cnco2)CC12CN(C(=O)[C@H]1CC1(C)C)C2)[C@@H](C)OCc1ccccc1` [I-39A], for which the IC50 on CDK2/Cyclin E1 is 0.1 to 1 µM; in the assay with Kuramochi cells it was more than 10 µM.

For `CNC(=O)[C@@H](NC(=O)[C@@H]1CN(Cc2cccnc2)CC12CN(C(=O)[C@H]1CC1(C)C)C2)[C@@H](C)OCc1ccccc1` [I-49A], the IC50 on CDK2/Cyclin E1 and with Kuramochi cells was more than 10 µM throughout.

Consider `C[C@@H](OCc1ccccc1)[C@H](NC(=O)C1CN(C(=O)c2cnn(Cc3ccccc3)c2)CC12CN(C(=O)C1CC1(C)C)C2)C(=O)NCCCCCN` (stereo partly drawn) [I-57], for which the IC50 on CDK2/Cyclin E1 is 0.01 to 0.1 µM; with Kuramochi cells it was more than 10 µM.

For `CNC(=O)[C@@H](NC(=O)[C@H]1CN(CC2CCOCC2)CC12CN(C(=O)[C@H]1CC1(C)C)C2)[C@@H](C)OCc1ccccc1` [I-68B], the IC50 on CDK2/Cyclin E1 and with Kuramochi cells was more than 10 µM each time.

For `CNC(=O)[C@@H](NC(=O)[C@@H]1CN(C(=O)c2cnn(Cc3ccccc3)c2)CC12CN(C(=O)C1(C(C)C)CC1)C2)[C@@H](C)OCc1ccccc1` [I-109A], the IC50 on CDK2/Cyclin E1 and with Kuramochi cells was more than 10 µM throughout.

With `CNC(=O)[C@H](COCc1ccccc1)NC(=O)[C@H]1CN(C(=O)c2cnn(Cc3ccccc3)c2)CC12CN(C(=O)C1(C(F)(F)F)CC1)C2` [I-113B], the IC50 on CDK2/Cyclin E1 and in the assay on Kuramochi cells was more than 10 µM throughout.

Consider `C[C@@H](OCC1CCCCC1)[C@H](NC(=O)[C@@H]1CN(C(=O)c2cnn(Cc3ccccc3)c2)CC12CN(C(=O)[C@H]1CC1(C)C)C2)C(=O)N1CCC[C@H](N)C1` [I-150A], for which the IC50 on CDK2/Cyclin E1 is not above 0.01 µM; in the assay with Kuramochi cells, 0.5 to 5 µM.

In the case of `C[C@@H](OCC1CCCCC1)[C@H](NC(=O)[C@H]1CN(C(=O)c2cnn(Cc3ccccc3)c2)CC12CN(C(=O)[C@H]1CC1(C)C)C2)C(=O)N1CCC[C@H](N)C1` [I-150B], the values for the IC50 on CDK2/Cyclin E1 and in the assay on Kuramochi cells were 1 to 10 µM and more than 10 µM, respectively.

Regarding `C[C@@H]1C[C@H](C)CN(C(=O)[C@@H](NC(=O)[C@H]2CN(C(=O)c3cn[nH]c3)CC23CN(C(=O)[C@H]2CC2(C)C)C3)[C@@H](C)OCC2CCCCC2)C1` [I-173B], the figures for the IC50 at CDK2/Cyclin E1 and in the assay on Kuramochi cells were 1 to 10 µM and more than 10 µM, respectively.

`C[C@@H](OCC1CCCCC1)[C@H](NC(=O)[C@H]1CN(C(=O)c2cncs2)CC12CN(C(=O)[C@H]1CC1(C)C)C2)C(=O)N1CCC(F)(F)CC1` [I-192B]: the IC50 on CDK2/Cyclin E1 is 1 to 10 µM; with Kuramochi cells, more than 10 µM.

As for `CNC(=O)[C@@H](NC(=O)[C@@H]1CN(C(=O)Cc2cnn(C)c2)CC12CN(C(=O)[C@H]1CC1(C)C)C2)[C@@H](C)OCc1ccccc1` [I-384], the results for the IC50 (in the assay on Kuramochi cells; in assay [1] (72 h)) were more than 10 µM and more than 20 µM, respectively.

In the case of `COC1CCN(C(=O)[C@@H](NC(=O)[C@@H]2CN(C(=O)c3cncs3)CC23CN(C(=O)[C@H]2CC2(C)C)C3)[C@@H](C)OCC2CCC(F)(F)CC2)CC1` [I-385], the IC50 (in the assay on Kuramochi cells; in assay [1] (72 h)) was not above 0.5 µM each time.

In the case of `C[C@@H](OCC1CCC(F)(F)CC1)[C@H](NC(=O)[C@@H]1CN(C(=O)c2cncs2)CC12CN(C(=O)[C@H]1CC1(C)C)C2)C(=O)N1CCC(C)(C)CC1` [I-386], the IC50 (with Kuramochi cells; in assay [1] (72 h)) was not above 0.5 µM throughout.

As for `C[C@@H](OCC1CCC(F)(F)CC1)[C@H](NC(=O)[C@@H]1CN(C(=O)c2cncs2)CC12CN(C(=O)[C@H]1CC1(C)C)C2)C(=O)N1CCC(C(F)(F)F)CC1` [I-398], the IC50 (in the assay on Kuramochi cells; in assay [1] (72 h)) was not above 0.5 µM each time.

Consider `COC[C@H]1CCCN(C(=O)[C@@H](NC(=O)[C@@H]2CN(C(=O)c3cncs3)CC23CN(C(=O)C(C)(C)C2CC2)C3)[C@@H](C)OC(C)C2CCC(F)(F)CC2)C1` (stereo partly drawn) [I-399], for which the IC50 (in the assay with Kuramochi cells; in assay [1] (72 h)) was 0.5 to 5 µM each time.

As to `CC1(C)C[C@@H]1C(=O)N1CC2(CN(C(=O)c3cnn(Cc4ccccc4)c3)C[C@H]2C(=O)NCc2ccc(O)nn2)C1` [I-400], the IC50 was more than 10 µM in the assay on Kuramochi cells and more than 20 µM in assay [1] (72 h).

`CNC(=O)[C@@H](NC(=O)[C@@H]1CN(C(=O)c2cncs2)CC12CN(C(=O)[C@H]1CC1(C)C)C2)C1(OCC2CCCCC2)CC1` [I-401]: the IC50 (in the assay on Kuramochi cells; in assay [1] (72 h)) was 0.5 to 5 µM each time.

In the case of `COC[C@H]1CCCN(C(=O)[C@@H](NC(=O)[C@@H]2CN(C(=O)c3cncs3)CC23CN(C(=O)[C@H]2CC2(C)C)C3)[C@@H](C)OC[C@H]2CC[C@H](OC)CC2)C1` [I-402], the IC50 (in the assay on Kuramochi cells; in assay [1] (72 h)) was 0.5 to 5 µM in each case.

`CNC(=O)[C@@H](NC(=O)[C@@H]1CN(C(=O)c2cnn(Cc3ccccc3)c2)CC12CN(C(=O)[C@H]1CC1(C)C)C2)[C@@H](C)OC[C@H]1CC[C@H](OC)CC1` [I-403]: the IC50 with Kuramochi cells was more than 10 µM; in assay [1] (72 h), more than 20 µM.

For `C[C@@H](OCC1CCCCC1)[C@H](NC(=O)[C@@H]1CN(C(=O)c2cncs2)CC12CN(C(=O)[C@H]1CC1(C)C)C2)C(=O)N1CCC(c2cnc[nH]2)CC1` [I-406], the IC50 (with Kuramochi cells; in assay [1] (72 h)) was 0.5 to 5 µM each time.

For the compound `CNC(=O)C(NC(=O)[C@@H]1CN(C(=O)c2cncs2)CC12CN(C(=O)[C@H]1CC1(C)C)C2)c1cccc(N2CCOCC2)n1` (stereo partly drawn) [I-422], the IC50 in the assay on Kuramochi cells was more than 10 µM; in assay [1] (72 h), more than 20 µM.

As to `CNC(=O)[C@@H](NC(=O)[C@@H]1CN(C(=O)c2cnn(Cc3ccccc3)c2)CC12CN(C(=O)[C@H]1CC1(C)C)C2)[C@@H](C)OC[C@H]1CC[C@@H](O)CC1` [I-424], the IC50 is more than 10 µM with Kuramochi cells and more than 20 µM in assay [1] (72 h).

For `CNC(=O)C(NC(=O)[C@@H]1CN(C(=O)c2cncs2)CC12CN(C(=O)[C@H]1CC1(C)C)C2)c1nc(C2CCCCC2)co1` (stereo partly drawn) [I-425], the values for the IC50 (in the assay on Kuramochi cells; in assay [1] (72 h)) were more than 10 µM and more than 20 µM, respectively.

For the compound `CNC(=O)C(NC(=O)[C@@H]1CN(C(=O)c2cncs2)CC12CN(C(=O)[C@H]1CC1(C)C)C2)c1ncc(C2CCCCC2)o1` (stereo partly drawn) [I-426], the IC50 was more than 10 µM in the assay on Kuramochi cells and more than 20 µM in assay [1] (72 h).

With `CNC(=O)C(NC(=O)[C@@H]1CN(C(=O)c2cncs2)CC12CN(C(=O)[C@H]1CC1(C)C)C2)c1cccc(N2CC3(COC3)C2)n1` (stereo partly drawn) [I-427], the IC50 in the assay on Kuramochi cells is more than 10 µM; in assay [1] (72 h), more than 20 µM.

For `C[C@@H](OCC1CCOCC1)[C@@H](COC(F)(F)F)NC(=O)[C@@H]1CN(C(=O)c2cncs2)CC12CN(C(=O)[C@H]1CC1(C)C)C2` [I-428], the IC50 was more than 10 µM in the assay with Kuramochi cells and more than 20 µM in assay [1] (72 h).

Take `CNC(=O)C(NC(=O)[C@@H]1CN(C(=O)c2cncs2)CC12CN(C(=O)[C@H]1CC1(C)C)C2)c1cccc(N2CC3(CC(C(F)(F)F)C3)C2)n1` (stereo partly drawn) [I-430]: the IC50 in the assay with Kuramochi cells is more than 10 µM; in assay [1] (72 h), more than 20 µM.

As to `CNC(=O)C(NC(=O)[C@@H]1CN(C(=O)c2cncs2)CC12CN(C(=O)[C@H]1CC1(C)C)C2)c1cccc(N2CCCCC2)n1` (stereo partly drawn) [I-432], the values for the IC50 (with Kuramochi cells; in assay [1] (72 h)) were more than 10 µM and more than 20 µM, respectively.

Turning to `CNC(=O)[C@@H](NC(=O)[C@@H]1CN(C(=O)c2cncs2)CC12CN(C(=O)[C@H]1CC1(C)C)C2)[C@@H](C)OCC1CC2CCC1O2` (stereo partly drawn) [I-462], the IC50 in the assay with Kuramochi cells is more than 10 µM; in assay [1] (72 h) it was more than 20 µM.

For `CNC(=O)[C@@H](NC(=O)[C@@H]1CN(C(=O)c2cncs2)CC12CN(C(=O)[C@H]1CC1(C)C)C2)[C@@H](C)OC1C2CC3CC(C2)CC1C3` (stereo partly drawn) [I-463], the IC50 (in the assay with Kuramochi cells; in assay [1] (72 h)) was 0.5 to 5 µM throughout.

In the case of `CNC(=O)[C@@H](NC(=O)[C@@H]1CN(C(=O)c2cncs2)CC12CN(C(=O)[C@H]1CC1(C)C)C2)[C@@H](C)OC1CC2CCC1CC2` (stereo partly drawn) [I-464], the IC50 (with Kuramochi cells; in assay [1] (72 h)) was 0.5 to 5 µM each time.

As to `CNC(=O)[C@@H](NC(=O)[C@@H]1CN(C(=O)c2cncs2)CC12CN(C(=O)[C@H]1CC1(C)C)C2)[C@@H](C)OCC1CC2CCC1C2` (stereo partly drawn) [I-465], the IC50 with Kuramochi cells is 0.5 to 5 µM; in assay [1] (72 h) it was not above 0.5 µM.

`COC[C@H]1CCCN(C(=O)[C@@H](NC(=O)[C@@H]2CN(C(=O)c3cncs3)CC23CN(C(=O)[C@H]2CC2(C)C)C3)[C@@H](C)O[C@H](C)C2CCCCC2)C1` [I-466]: the IC50 (in the assay with Kuramochi cells; in assay [1] (72 hours)) was 0.5 to 5 µM in each case.

As to `C[C@@H](OCC1CCC(F)(F)CC1)[C@H](NC(=O)[C@@H]1CN(C(=O)c2cncs2)CC12CN(C(=O)[C@H]1CC1(C)C)C2)C(=O)N1C2CCC1COC2` [I-468], the IC50 (in the assay on Kuramochi cells; in assay [1] (72 h)) was not above 0.5 µM in each case.

Consider `CC1(C)C[C@@H]1C(=O)N1CC2(CN(C(=O)c3cncs3)C[C@H]2C(=O)NC(c2cccc(C3CCCCC3)n2)P(C)(C)=O)C1` (stereo partly drawn) [I-494], for which the IC50 was more than 10 µM in the assay on Kuramochi cells and more than 20 µM in assay [1] (72 h).

Take `CC1(C)C[C@@H]1C(=O)N1CC2(CN(C(=O)c3cncs3)C[C@H]2C(=O)NC(c2cccc(C3CCCCC3)n2)C2COCCO2)C1` (stereo partly drawn) [I-496]: the IC50 in the assay on Kuramochi cells was more than 10 µM; in assay [1] (72 h), 5 to 20 µM.
